Measured values published in paper PMC5381078, “Carboxylate derivatives of tributyltin (IV) complexes as anticancer and antileishmanial agents” (DARU Journal of Pharmaceutical Sciences, 2017).

Legend:
[1] = test system: THP-1 cell line; experiment: Cytotoxicity against THP-1 cell line (MTT assay); type: cell-based, human; conditions: 20 μg/mL, 72 h
Procedure: Cytotoxicity of tributyltin (IV) compounds against THP-1 cell line was determined by 3-(4,5-dimethylthiazol-2-yl)-2,5-diphenyl tetrazolium bromide (MTT) assay. THP-1 cells were cultured in complete growth medium comprising RPMI-1640 (pH 7.4) supplemented with 2.2 g/L NaHCO3 and 10% v/v heat inactivated fetal bovine serum (HIFBS). An aliquot of 20 μL of samples in 1% DMSO in PBS and 180 μL of THP-1 cells were mixed in 96-well plate. Cells were added at an assay density of 1 × 10^4 cells/mL whereas sample/standard was added to achieve the final concentration of 20 μg/mL. The plate was incubated at 37 °C for 72 h in humidified 5% carbon dioxide incubator (Panasonic, Japan MCO-18 AC-PE). Vincristine and 1% DMSO in PBS were used as positive and negative controls respectively. After incubation, 20 μL of pre-filter sterilized MTT solution (4 mg/mL in distilled water) was added in plates and incubated for 4 h at 37 °C in CO2 incubator. Later, colored formazan crystals were separated by removing supernatant and dissolved in 100 μL of DMSO. Reaction was allowed to stand for 1 h to ensure complete dissolution and absorbance was measured at 540 nm using microplate reader (Biotech USA, Elx 800).

[2] = test system: isolated lymphocytes; experiment: Cytotoxicity against isolated lymphocytes (MTT assay); type: cell-based, human; conditions: 24 h
Procedure: Lymphocytes were isolated using previously described protocol with some modifications. Informed consent was obtained from volunteers and procedure was conducted according to international ethical guidelines after gaining approval from the ethical committee of the Quaid-i-Azam University. A volume of 3 mL of blood was obtained from a healthy donor by venipuncture and diluted (1:1) with PBS. It was layered over 2 mL Histopaque-1077 and centrifuged at 800 × g for 20 min. The buffy coat was aspirated into 5 mL of PBS and centrifuged at […] for 4 min to pellet the lymphocytes. The pellet was suspended in 1 mL of RPMI-1640 and cell density was adjusted to get 1 × 10^5 cells/mL. For cytotoxicity determination, 20 μL of samples (20 μg/mL) or vincristine or 1% DMSO in PBS and 180 μL of lymphocyte suspension were incubated in 96-well plate at 37 °C for 24 h in humidified 5% carbon dioxide incubator (Panasonic, Japan MCO-18 AC-PE). Phytohaemagglutinin (PHA) was added in medium to stimulate lymphocyte growth. Afterwards, MTT assay was done as described above. IC50 values were determined using 3-fold dilutions of the samples.

[3] = test system: promastigotes of Leishmania tropica kwh 23; experiment: Antileishmanial activity (MTT assay); type: cell-based; conditions: 72 h; for Antileishmanial % growth inhibition (mortality, lethality): 20 μg/mL; for Antileishmanial LC50: MTT
Procedure: Antileishmanial activity against the promastigotes of Leishmania tropica kwh 23 was evaluated by a quantitative colorimetric assay using 3-(4,5-dimethylthiazol-2-yl)-2, 5-diphenyl tetrazolium bromide (MTT) with minor modifications. […] […] Negative control wells contained 1% DMSO in PBS. All samples were run in triplicate. Afterwards, plates were incubated for 4 h at 24 °C with 20 μL of MTT (4 mg/mL in distilled water) to determine the cell viability. Supernatant from each well was carefully removed leaving behind formazan crystals. Colored formazan crystals were dissolved in 100 μL of DMSO by setting those aside for 1 h to ensure complete dissolution. Cell viability was estimated by measuring absorbance at 540 nm using microplate reader and percentage growth inhibition was calculated.

[4] = test system: Leishmania tropica kwh 23 promastigotes; experiment: ROS mediated antileishmanial activity (NaN3 / mannitol scavengers); type: cell-based; conditions: for Reduction of antileishmanial activity in the presence of NaN3: NaN3 0.1 mM; for Reduction of antileishmanial activity in the presence of mannitol: mannitol 1 mM
Procedure: Leishmania tropica kwh 23 promastigotes were treated in three groups. First group was exposed to samples along with 0.1 mM sodium azide (NaN3), second group to samples with 1 mM mannitol and third group comprised of all controls. In third group, promastigotes were treated in different wells with samples only (sample control), 1% DMSO in PBS only (negative control-I), amphotericin B only (positive control), 0.1 mM NaN3 only (negative control-II) and 1 mM mannitol only (negative control-III). Plates were incubated followed by MTT assay described above.

[5] = test system: Leishmania tropica kwh 23 promastigotes; experiment: Photosensitizing effect against leishmania; type: cell-based; conditions: for Photosensitizing effect % growth inhibition, Sunlight with IR filter: 15 min; for Photosensitizing effect % growth inhibition, Sunlight: 15 min sunlight
Procedure: Photosensitizing effect of tributyltin (IV) compounds was determined in three parallel groups. Samples and controls were exposed for 15 min to sunlight (168 W/m^2 of sun intensity) or sunlight with IR filter or dark conditions. The relative intensity of sunlight was measured by a CCD spectrometer (Ocean Optics, model HR4000). Later, plates were incubated at 25 °C for 72 h and cell viability was determined by MTT assay as given above. In this assay, samples were tested at concentrations showing less than 55% inhibition in primary antileishmanial assay to exclude false positive.

[6] = test system: Streptomyces 85E; experiment: Protein kinase inhibition assay (Streptomyces disc assay); type: cell-based; conditions: for ZOI CZ (clear zone): (-) shows no ZOI; for ZOI BZ (bald zone): BZ indicative of PK inhibition; for MIC for PK inhibition: minimum inhibitory concentration
Procedure: Protein kinase inhibitory activity of the tributyltin (IV) compounds was measured against Streptomyces 85E strain using previously described protocol. Culture of Streptomyces 85E was refreshed in tryptic soy broth and 100 μL of this was swabbed on sterile ISP4 medium under aseptic conditions. […] Diameter (mm) of zone of inhibition (ZOI) around all samples and controls was measured as clear zone (CZ) and bald zone (BZ). […] BZ is indicative of PK inhibition.

[7] = test system: axenic log-phase promastigotes; parameters: method as in PMID 19546361; conditions: cited from earlier work
[8] = test system: cellular metacyclic promastigotes; parameters: method as in PMID 19546361; conditions: cited from earlier work
[9] = test system: HepG2 cell line; experiment: Cytotoxicity against HepG2 cell line (SRB assay); type: cell-based, human; conditions: 72 h
Procedure: Cytotoxicity was further evaluated against HepG2 cell line by sulforhodamine B (SRB) colorimetric assay. Dulbecco's Modified Eagle Medium (DMEM) supplemented with 10% FBS, 100 μg/mL streptomycin sulfate, 100 IU/mL penicillin G sodium and 0.25 μg/mL amphotericin B was used to culture HepG2 cells in CO2 (5%) incubator (Panasonic, Japan MCO-18 AC-PE) at 37 °C. An aliquot of 20 μL (1% DMSO in PBS) of samples was added to 180 μL of cell culture at an assay density of 1x10^5 cells/mL in 96-well plate. The plate was incubated at 37 °C for 72 h in CO2 incubator. Final concentration of compounds/standard was 20 μg/mL. Doxorubicin and 1% v/v DMSO in PBS ere used as positive and negative controls respectively. An equivalent number of cells in twelve wells of 96-well plate were incubated for 1 h at 37 °C and labeled as day zero control. Later, cells were fixed by adding 50 μL of cold 20% w/v TCA for 1 h at 4 °C. These were washed with tap water, air dried and stained with 50 μL of 0.057% w/v SRB in 1% v/v acetic acid for 30 min at room temperature. Cells were again washed with 1% v/v acetic acid, dried overnight and 200 μL of 10 mM Tris base (pH 10) was used to solubilize the bound dye for 1 h. Absorbance was measured at 515 nm using a microplate reader. Percentage of growth inhibition was calculated as: % inhibition = 100 – [(As – Ao) / (An – Ao) × 100], where, Ao, As and An are absorbance of day zero control, samples and negative control respectively. IC50 values were determined using 3-fold dilutions of the samples.

Row | SMILES | THP-1 % growth inhibition [1] | Antileishmanial % growth inhibition (mortality, lethality) [3] | Antileishmanial LC50 [3] | Reduction of antileishmanial activity in the presence of NaN3 [4] | Reduction of antileishmanial activity in the presence of mannitol [4] | ZOI BZ (bald zone) ([6]; 6.25 μg/disc) | ZOI CZ (clear zone) ([6]; 50 μg/disc) | MIC for PK inhibition [6] | further results
1 | CCC[CH2][Sn]([CH2]CCC)([CH2]CCC)[O]C(=O)/C=C\C(=O)NC1CCCCC1 [Ch-442, tributylstannyl (Z)-4-(cyclohexylamino)-4-oxobut-2-enoate] | 44.6 ± 1.18% | 95.8 ± 2.16 % | 0.088 ± 0.009 µg/mL | 22% | 38.2% | 29 ± 0.78 mm | 40 ± 1.17 mm | 0.391 ± 0.006 μg/disc | Isolated lymphocytes IC50 [2]: 14.9 ± 0.25 µg/mL; Photosensitizing effect % growth inhibition, Control ([5]; 0.092 μg/mL): 46.1 ± 0.56%; Photosensitizing effect % growth inhibition, Dark ([5]; 0.092 μg/mL): 44.18 ± 1.16%; Photosensitizing effect % growth inhibition, Sunlight with IR filter ([5]; 0.092 μg/mL): 49.25 ± 0.63%; Photosensitizing effect % growth inhibition, Sunlight ([5]; 0.092 μg/mL): 40.5 ± 0.12%; ZOI CZ (clear zone) ([6]; 6.25 μg/disc): 10 ± 0.74 mm
2 | O.O.O.O.O.O.O.O.O.O=C([O-])[C@@H]1[O][Sb](=[O])([O][Sb]2(=[O])[O][C@H]([C@H](O)CO)[C@H](O)[C@H](C(=O)[O-])[O]2)[O][C@H]([C@H](O)CO)[C@@H]1O.[Na+].[Na+].[Na+] (some centres unmarked) [sodium stibogluconate] | – | – | – | – | – | – | – | – | IC50 [7]: 64 µg/mL; IC50 [8]: 22 µg/mL
3 | C[C@@H]1[C@H](O)[C@@H](C)/C=C/C=C/C=C/C=C/C=C/C=C/C=C/[C@H](O[C@@H]2O[C@H](C)[C@@H](O)[C@H](N)[C@@H]2O)C[C@@H]2O[C@](O)(C[C@@H](O)C[C@@H](O)[C@H](O)CC[C@@H](O)C[C@@H](O)CC(=O)O[C@H]1C)C[C@H](O)[C@H]2C(=O)O [Amphotericin B, reference compound] | – | – | – | 16% | 10% | – | – | – | mortality at 20 µg/mL ([3]; Leishmania tropica, read-out: Antileishmanial % growth inhibition (mortality, lethality)): 100%
4 | CCC[CH2][Sn]([CH2]CCC)([CH2]CCC)[O]C(=O)CCC(=O)Nc1ccc(C(=O)[O][Sn]([CH2]CCC)([CH2]CCC)[CH2]CCC)cc1 [Ch-448, tributylstannyl 4-(4-oxo-4-((tributylstannyl)oxy)butanamido)benzoate] | 43.1 ± 2.29% | 96.5 ± 2.67 % | 0.576 ± 0.088 µg/mL | – | – | 25 ± 1.75 mm | 31 ± 1.05 mm | 0.781 ± 0.002 μg/disc | HepG2 % growth inhibition ([9]; 20 μg/mL): 97.1 ± 2.34 %; HepG2 IC50 ([9]; 3-fold dilutions): 3.45 ± 0.63 µg/mL; Isolated lymphocytes % growth inhibition ([2]; 20 μg/mL): 23.6 ± 1.07ǂ %; Photosensitizing effect % growth inhibition, Control ([5]; 0.55 μg/mL): 54.65 ± 2.75%; Photosensitizing effect % growth inhibition, Dark ([5]; 0.55 μg/mL): 50.16 ± 1.19%; Photosensitizing effect % growth inhibition, Sunlight with IR filter ([5]; 0.55 μg/mL): 52.9 ± 1.17%; Photosensitizing effect % growth inhibition, Sunlight ([5]; 0.55 μg/mL): 49.7 ± 0.89%
